Results: ChEMBL document CHEMBL3621146, “Design of Potent and Orally Active GPR119 Agonists for the Treatment of Type II Diabetes” (ACS Med Chem Lett, 2015)
Values after ≈ are worked out from the molar mass of the structure shown. Blank lines part the entries; values can stand above or below the compound they belong to.

Experiments:
[1] = target: T1, Glucose-dependent insulinotropic receptor (Homo sapiens, UniProt Q8TDV5); test: Agonist activity at human GPR119 expressed in CHO cells by cAMP assay; format: functional, cell-based
T1 sequence (Q8TDV5 whole entry): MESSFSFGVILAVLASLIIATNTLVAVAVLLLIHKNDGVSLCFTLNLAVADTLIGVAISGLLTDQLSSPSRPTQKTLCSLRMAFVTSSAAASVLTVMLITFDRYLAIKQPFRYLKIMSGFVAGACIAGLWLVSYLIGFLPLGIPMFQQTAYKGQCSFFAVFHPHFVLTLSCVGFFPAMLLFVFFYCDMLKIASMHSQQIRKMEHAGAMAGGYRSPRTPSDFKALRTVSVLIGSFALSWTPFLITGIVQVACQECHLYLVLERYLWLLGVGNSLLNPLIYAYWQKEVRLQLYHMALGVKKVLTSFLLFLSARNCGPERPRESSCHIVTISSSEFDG

[2] = target: T2, Glucose-dependent insulinotropic receptor (Homo sapiens) (UniProt Q8TDV5); test: Agonist activity at human GPR119 by cAMP assay relative to control; format: functional; design: concentration or dose not given beside the values
T2 sequence (whole entry): T1 sequence (Q8TDV5 whole entry)

[3] = target: T3, Glucose-dependent insulinotropic receptor (Mus musculus, UniProt Q7TQP3); test: Agonist activity at mouse GPR119 by cAMP assay; format: functional
T3 sequence (Q7TQP3 whole entry): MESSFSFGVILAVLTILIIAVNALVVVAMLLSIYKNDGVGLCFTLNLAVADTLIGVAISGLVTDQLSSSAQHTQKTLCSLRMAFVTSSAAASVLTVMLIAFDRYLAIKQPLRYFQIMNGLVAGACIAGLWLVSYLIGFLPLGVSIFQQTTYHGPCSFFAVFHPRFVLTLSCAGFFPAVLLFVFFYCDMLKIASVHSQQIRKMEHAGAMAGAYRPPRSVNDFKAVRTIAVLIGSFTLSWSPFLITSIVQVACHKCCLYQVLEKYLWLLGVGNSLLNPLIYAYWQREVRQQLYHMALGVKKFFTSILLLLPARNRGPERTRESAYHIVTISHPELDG

[4] = target: T4, Glucose-dependent insulinotropic receptor (Mus musculus) (UniProt Q7TQP3); test: Agonist activity at mouse GPR119 by cAMP assay relative to control; format: functional; design: concentration or dose not given beside the values
T4 sequence (whole entry): T3 sequence (Q7TQP3 whole entry)

[5] = Kinetic solubility in FaSSIF at pH 6.5; format: physicochemical; details: FaSSIF, read-out: Kinetic_solubility
[6] = Lipophilicity, logD of the compound at pH 7 by HPLC method; format: physicochemical; details: buffer
[7] = (§1) Half life in Wistar Han rat at 0.5 mg/kg, iv LC-MS/MS method; format: ADME, organism-based; details: Wistar Han, in vivo
Rattus norvegicus [8] = test: as §1; format: ADME, organism-based; details: in vivo
Cavia porcellus = species on record: Cavia porcellus; test: Toxicity in guinea pig assessed as effect on cardiovascular parameters at 64 times over target clinical exposure level; format: organism-based, Heart; details: in vivo
Cytochrome P450 3A4 = Cytochrome P450 3A4 (Homo sapiens, UniProt P08684); test: Inhibition of CYP3A4 (unknown origin)
[9] = target: T5, Nuclear receptor subfamily 1 group I member 2 (Homo sapiens, UniProt O75469); test: Activation of human PXR; format: ADME
T5 sequence (O75469 whole entry): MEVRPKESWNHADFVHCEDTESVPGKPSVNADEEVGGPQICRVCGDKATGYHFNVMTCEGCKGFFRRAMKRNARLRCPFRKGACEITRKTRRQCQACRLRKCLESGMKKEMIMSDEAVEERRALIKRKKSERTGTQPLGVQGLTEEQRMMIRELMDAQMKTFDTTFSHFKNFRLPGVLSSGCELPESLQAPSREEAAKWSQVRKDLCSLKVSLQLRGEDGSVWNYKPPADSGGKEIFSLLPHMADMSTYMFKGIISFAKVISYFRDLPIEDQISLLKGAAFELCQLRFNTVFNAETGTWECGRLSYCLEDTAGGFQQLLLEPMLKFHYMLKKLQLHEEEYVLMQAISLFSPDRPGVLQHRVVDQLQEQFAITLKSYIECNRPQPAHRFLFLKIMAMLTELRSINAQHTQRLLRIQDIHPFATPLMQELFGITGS

[10] = target: T5, Nuclear receptor subfamily 1 group I member 2; test: Activation of human PXR relative to control; format: ADME
Mus musculus [11] = test: Reduction in blood glucose excursion in po dosed C57BL/6 Tac mouse by OGTT method; format: functional, organism-based
Mus musculus [12] = test: Reduction in blood glucose excursion in po dosed C57BL/6 Tac mouse assessed as minimal dose for maximum efficacy by OGTT method; format: functional; details: read-out: MED
[13] = Drug level in mouse blood at 0.3 mg/kg after 90 mins; format: ADME, organism-based; details: whole blood, read-out: Drug uptake
[14] = Drug level in mouse blood at 1 mg/kg after 90 mins; format: ADME, organism-based; details: whole blood, read-out: Drug uptake
[15] = Drug level in mouse blood at 3 mg/kg after 90 mins; format: ADME, organism-based; details: whole blood, read-out: Drug uptake
[16] = Drug level in mouse blood at 10 mg/kg after 90 mins; format: ADME, organism-based; details: whole blood, read-out: Drug uptake
[17] = Intrinsic clearance in rat liver microsomes; format: ADME; details: read-out: CLH
[18] = Intrinsic clearance in monkey liver microsomes; format: ADME, Macaca mulatta; details: rhesus monkey, read-out: CLH
[19] = Intrinsic clearance in dog liver microsomes; format: ADME, Canis lupus familiaris; details: read-out: CLH
[20] = Intrinsic clearance in human liver microsomes; format: ADME; details: read-out: CLH
[21] = Solubility in PEG200; format: physicochemical
[22] = Solubility in PEG400; format: physicochemical
[23] = Solubility in FaSSIF; format: physicochemical; details: simulated gi fluid
[24] = Solubility in SGF; format: physicochemical
[25] = Plasma clearance in Wistar Han rat at 0.5 mg/kg, iv LC-MS/MS method; format: ADME, organism-based
[26] = (§2) Volume of distribution in Wistar Han rat at 0.5 mg/kg, iv LC-MS/MS method; format: ADME, organism-based; details: Wistar Han, in vivo
[27] = Oral bioavailability in Wistar Han rat; format: ADME, organism-based; details: in vivo
[28] = Plasma clearance in Beagle dog; format: ADME, organism-based, Canis lupus familiaris
[29] = Volume of distribution in Beagle dog; format: ADME, organism-based, Canis lupus familiaris; details: in vivo
[30] = Half life in Beagle dog; format: ADME, organism-based, Canis lupus familiaris; details: in vivo
[31] = Oral bioavailability in Beagle dog; format: ADME, organism-based, Canis lupus familiaris; details: in vivo
[32] = Plasma clearance in rhesus monkey; format: ADME, organism-based, Macaca mulatta
[33] = Volume of distribution in rhesus monkey; format: ADME, organism-based, Macaca mulatta; details: in vivo
[34] = Half life in rhesus monkey; format: ADME, organism-based, Macaca mulatta; details: in vivo
[35] = Oral bioavailability in rhesus monkey; format: ADME, organism-based, Macaca mulatta; details: in vivo
[36] = Fraction unbound in rat plasma; format: ADME, cell-free
[37] = Fraction unbound in dog plasma; format: ADME, cell-free, Canis lupus familiaris
[38] = Fraction unbound in rhesus monkey plasma; format: ADME, cell-free, Macaca mulatta
[39] = Fraction unbound in human plasma; format: ADME, cell-free
Rattus norvegicus [40] = test: Unbound volume of distribution in Wistar Han rat at 0.5 mg/kg, iv LC-MS/MS method; format: ADME, organism-based; details: in vivo
Rattus norvegicus [41] = test: as §2; format: ADME, organism-based; details: in vivo

Cytochrome P450 3A4, sequence (P08684 whole entry): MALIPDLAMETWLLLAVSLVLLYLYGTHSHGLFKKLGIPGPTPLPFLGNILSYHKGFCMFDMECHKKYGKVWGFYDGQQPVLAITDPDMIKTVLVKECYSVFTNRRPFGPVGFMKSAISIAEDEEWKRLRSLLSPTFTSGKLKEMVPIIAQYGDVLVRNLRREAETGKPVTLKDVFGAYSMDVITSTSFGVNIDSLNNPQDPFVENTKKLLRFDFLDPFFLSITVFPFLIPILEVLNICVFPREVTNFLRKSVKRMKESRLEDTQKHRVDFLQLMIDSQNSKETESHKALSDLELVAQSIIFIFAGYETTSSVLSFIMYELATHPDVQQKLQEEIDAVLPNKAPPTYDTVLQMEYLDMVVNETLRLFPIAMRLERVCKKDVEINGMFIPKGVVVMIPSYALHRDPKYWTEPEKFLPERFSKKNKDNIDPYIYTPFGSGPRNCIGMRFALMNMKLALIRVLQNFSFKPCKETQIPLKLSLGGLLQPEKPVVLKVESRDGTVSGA

Structure (SMILES): COCc1cnc(N2CCC([C@H]3C[C@H]3COCc3ccc(S(C)(=O)=O)c(F)c3)CC2)nc1
EC50 [1]: 3.3 nM | Activity [2]: 94% | EC50 [3]: 5.2 nM | Activity [4]: 87% | solubility kinetic [5]: 155 µM (≈ 71.9 µg/mL) | logD [6]: 3.5 | half-life [7]: 1.2 h

Structure (SMILES): COC(C)c1cnc(N2CCC([C@H]3C[C@H]3COCc3ccc(S(C)(=O)=O)cc3F)CC2)nc1 (stereo in doubt; 30)
EC50 [1]: 4.6 nM | EC50 [3]: 3.3 nM | solubility kinetic [5]: 137 µM (≈ 65.4 µg/mL) | logD [6]: 3.9 | t1/2 (Rattus norvegicus [8]): 1 h

Structure (SMILES): CC(C)c1noc(N2CCC([C@H]3C[C@H]3COCc3ccc(S(C)(=O)=O)cc3F)CC2)n1
EC50 [1]: 4.2 nM | Activity [2]: 87% | EC50 [3]: 9.9 nM | Activity [4]: 76% | solubility kinetic [5]: 144 µM (≈ 65 µg/mL) | logD [6]: 3.8 | half-life [7]: 2.2 h

Structure (SMILES): COc1cnc(N2CCC([C@H]3C[C@H]3COCc3ccc(S(C)(=O)=O)cc3F)CC2)nc1
EC50 [1]: 4.5 nM | Activity [2]: 79% | EC50 [3]: 1.4 nM | Activity [4]: 85% | solubility kinetic [5]: 151 µM (≈ 67.9 µg/mL) | logD [6]: 4 | half-life [7]: 0.6 h

Structure (SMILES): CCS(=O)(=O)c1ccc(COC[C@@H]2C[C@@H]2C2CCN(c3nc(C(C)C)no3)CC2)c(F)c1
CLint scaled [17]: 905 mL/min/kg | EC50 [1]: 0.8 nM | Activity [2]: 71% | solubility kinetic [5]: 127 µM (≈ 59.1 µg/mL) | logD [6]: 4 | t1/2 (Rattus norvegicus [8]): 1.5 h | Vd (Rattus norvegicus [41]): 4.8 L/kg | fraction unbound [36]: 0.058 | Vdu (Rattus norvegicus [40]): 62 L/kg

Structure (SMILES): CC(C)c1noc(N2CCC([C@H]3C[C@H]3COCc3ccc(-n4cnnn4)cc3F)CC2)n1
EC50 [1]: 1.7 nM | Activity [2]: 129% | EC50 [3]: 4.8 nM | Activity [4]: 105% | solubility kinetic [5]: 103 µM (≈ 45.5 µg/mL) | logD [6]: 3.9 | half-life [7]: 1.4 h

Further compounds by falling EC50 [1], results first:

EC50 [1]: 4.5 nM | Activity [2]: 80% | EC50 [3]: 5.8 nM | Activity [4]: 67% | solubility kinetic [5]: 115 µM (≈ 55.4 µg/mL) | logD [6]: 3.6 | half-life [7]: 0.5 h
Structure (SMILES): COCc1cnc(N2CCC([C@H]3C[C@H]3COCc3cc(F)c(S(C)(=O)=O)c(F)c3)CC2)nc1

IC50 (Cytochrome P450 3A4): 40000 nM | EC50 [9]: > 30000 nM | Activity [10]: 39% | concentration at 1.5 h [13]: 18 nM | concentration at 1.5 h [14]: 86 nM | concentration at 1.5 h [15]: 302 nM | concentration at 1.5 h [16]: 622 nM | CLint scaled [17]: 1100 mL/min/kg | CLint scaled [18]: 319 mL/min/kg | CLint scaled [19]: 60 mL/min/kg | CLint scaled [20]: 42 mL/min/kg | solubility [21]: 129000 µg/mL (≈ 278000 µM) | solubility [22]: 325000 µg/mL (≈ 701000 µM) | solubility [23]: 56 µg/mL (≈ 121 µM) | solubility [24]: 870 µg/mL (≈ 1880 µM) | EC50 [1]: 2.1 nM | Activity [2]: 88% | EC50 [3]: 1.9 nM | Activity [4]: 97% | solubility kinetic [5]: 161 µM (≈ 74.6 µg/mL) | logD [6]: 3.5 | half-life [7]: 1 h | clearance [25]: 41 mL/min/kg | Vd [26]: 2.2 L/kg | bioavailability [27]: 27% | clearance [28]: 6 mL/min/kg | Vd [29]: 6.5 L/kg | half-life [30]: 17 h | bioavailability [31]: 60% | clearance [32]: 16 mL/min/kg | Vd [33]: 2 L/kg | half-life [34]: 2.3 h | bioavailability [35]: 5% | fraction unbound [36]: 0.041 | fraction unbound [37]: 0.055 | fraction unbound [38]: 0.032 | fraction unbound [39]: 0.049 | Vdu (Rattus norvegicus [40]): 54 L/kg
Structure (SMILES): COCc1cnc(N2CCC([C@H]3C[C@H]3COCc3ccc(S(C)(=O)=O)cc3F)CC2)nc1
Activity (Cavia porcellus): Non-toxic | Activity (Mus musculus [11]): Dose-dependent effect | minimal effective dose (Mus musculus [12]): 3 mg/kg

EC50 [1]: 1.7 nM | Activity [2]: 75% | EC50 [3]: 2.3 nM | Activity [4]: 96% | solubility kinetic [5]: 101 µM (≈ 46.8 µg/mL) | logD [6]: 4.2 | half-life [7]: 0.8 h
Structure (SMILES): CCOc1cnc(N2CCC([C@H]3C[C@H]3COCc3ccc(S(C)(=O)=O)c(F)c3)CC2)nc1

EC50 [1]: 1.5 nM | Activity [2]: 83% | EC50 [3]: 2.5 nM | Activity [4]: 153% | solubility kinetic [5]: 7 µM (≈ 3.01 µg/mL) | logD [6]: 3.6 | half-life [7]: 1.3 h
Structure (SMILES): CCc1cnc(N2CCC([C@H]3C[C@H]3COCc3ccc(S(C)(=O)=O)cn3)CC2)nc1
